Series [1] has as its target T1, Tat (Human immunodeficiency virus type 1 group M subtype B, UniProt P04608).
T1 construct: expressed in transfected cells; host or cells: COS-7 cells
Briefly: Tat-inhibiting effect (reporter plasmid and Tat activator plasmid cotransfected into COS-7 cells). It is filed as cell-based, HIV. On the procedure:
After a reporter plasmid and an activator plasmid of Tat were cotransfected into COS-7 cells by a DEAE dextran method to culture the cells at 37° C. for 24 hours in the presence of 5% CO2, the transfectant was added to 96-well microplates, in which a test agent had been placed in advance, in a proportion of 1×10^4 cells/well, followed by reculture at 37° C. for 3 days in the presence of 5% CO2. A supernatant (50 μl) of each of the cultures was then added to another 96-well microplate in which p-nitrophenyl phosphate as a substrate and a buffer had been placed, followed by incubation at 37° C. for 3 hours. The variation in absorbance at 405 nm due to p-nitrophenol formed was then measured to determine the presence of a Tat-inhibiting effect.

Series [2] concerns U937 /RF. Nature of the series: Anti-HIV activity in persistently infected U937 /RF cells. In kind it is cell-based. As to the method: (§1) Predetermined concentrations of test agents were separately added to cells (2×10^5 cells/ml, 10 ml) persistently infected with HIV in a logarithmic growth phase to culture them for 96 hours, thereby counting the number of living cells and the number of killed cells every 24 hours by a trypan blue dye exclusion test to determine the cytotoxic effects of the test agents on the cells. A viral infectious titer (TCID50 /ml) in each of the culture solutions incubated for 96 hours was determined by 72-hour culture using, as an index, the giant cell formation of MT-4 cells. As a control, culture was conducted in a medium free of any agent. An anti-HIV activity (inhibition %) was determined in accordance with the following equation. [formula]

For series [3], the system named is H9 /MN. Nature of the series: Anti-HIV activity in persistently infected H9 /MN cells. It is filed as cell-based. As to the method: as §1
In series [4] the test system is Molt-4/IIIB. Nature of the series: Anti-HIV activity in persistently infected Molt-4/IIIB cells. It is filed as cell-based. The note with it: Human immunodeficiency virus 1, IIIB, read-out: Anti-HIV activities (inhibition %). On the procedure:
as §1

In series [5] the test system is CEM/LAV-1. Briefly: Anti-HIV activity in persistently infected CEM/LAV-1 cells. It is filed as cell-based. On the procedure:
as §1

Series [6] has as its system CEM cells. Briefly: Cytotoxicity test, CEM cells (trypan blue dye exclusion). It is filed as cell-based. To be noted: concentrations not greater than 500 μM. On the procedure: (§2) Culture solutions (10 ml) of CEM and a strain CEM/LAV persistently producing HIV-1, both, in a logarithmic growth phase were prepared with media containing various concentrations of a test agent so as to give a concentration of 2.5×10^5 cells/ml, followed by culture at 37° C. in the presence of 5% CO2. After pipetting each cells culture solution every 24 hours, it was collected to count the number of living cells and the number of killed cells by a trypan blue dye exclusion test.

In series [7] the test system is HIV-constituting proteins (p24, p41). Briefly: Detection of HIV-constituting proteins by western immunoblotting, primarily infected CEM cells. In kind it is cell-based, HIV-1. To be noted: 500 μM. On the procedure:
(§3) Cells were collected from a culture solution (1.0×10^6 cells/ml, 108 ml) of CEM in a logarithmic growth phase by centrifugation (260×g, 5 minutes). An HIV-1 virus solution (12×10^5 TCID50) was added to the cells to culture them at 37° C. for 24 hours in 180 ml of a medium, thereby adsorbing the virus thereon. After a culture supernatant containing the virus was then removed by centrifugation (260×g, 5 minutes), and the residue was washed three times with 50 ml of an RPMI-1640 basal medium under centrifugation (260×g, 5 minutes), media separately containing predetermined concentrations of test agents were used to prepare cell suspensions (1×10^5 cells/ml, 50 ml×2 sample for each concentration of the test agents). Each of these cell culture solutions was collected in 25-ml portions every 24 hours until 96 hours passed by. The collected solutions were subjected to SDS-PAGE, followed by western immunoblotting to detect virus-constituting proteins. Incidentally, an HIV-1 positive serum was used as a primary antibody.
On the technique in general: Immunoblotting shows a protein as a band on a membrane.

Series [8] concerns HIV-1 in primarily infected CEM cells. Nature of the series: Viral infectious titer in culture supernatant of primarily infected CEM cells. It is filed as cell-based. The note with it: Human immunodeficiency virus 1, CCRF-CEM, % of a control.
Series [9] has as its system CEM/LAV cells. Briefly: Cytotoxicity test, CEM/LAV cells persistently producing HIV-1 (trypan blue dye exclusion). It is filed as cell-based. To be noted: 500 μM. As to the method: as §2
For series [10], the system named is primarily infected CEM cells. Briefly: Effect on growth of primarily infected CEM cells. It is filed as cell-based, HIV-1. The note with it: concentrations not greater than 500 μM. On the procedure:
as §3

Series [11] concerns CEM/LAV-1, H9 /MN and Molt-4/IIIB cells. Nature of the series: Anti-HIV activity, summary over CEM/LAV-1, H9 /MN and Molt-4/IIIB cells. In kind it is cell-based. To be noted: 500 μM. As to the method:
as §1

The test system of series [12] is AIDS. The note with it: clinical use; cited from earlier work.
Where [13] appears, read: COS-7, control = 100, read-out: Specific activity (%) (Average ± SE).
[14] abbreviates: Human immunodeficiency virus 1, 96 h, read-out: Anti-HIV activities (inhibition %).
Where [15] appears, read: Human immunodeficiency virus 1, 50 μM, 96 hours, read-out: Anti-HIV activities (inhibition %).
Where [16] appears, read: Human immunodeficiency virus 1, U-937, 50 μM, 96 hours, read-out: Anti-HIV activities (inhibition %).
[17] abbreviates: Human immunodeficiency virus 1, 125 μM, 96 hours, read-out: Anti-HIV activities (inhibition %).
Setting [18] is: Human immunodeficiency virus 1, 500 μM, 96 hours, read-out: Anti-HIV activities (inhibition %).

The text below walks through data of US5886000A, “Anti-HIV agent” (Nissui Pharmaceutical Co., Ltd,, priority 1994, dated 1999).

Read-outs that look alike come from different tables or passages of the source.

T1 sequence (P04608 whole entry): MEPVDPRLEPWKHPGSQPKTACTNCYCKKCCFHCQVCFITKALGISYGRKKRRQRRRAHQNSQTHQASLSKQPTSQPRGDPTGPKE

Consider `CC(=O)N[C@@H](CS)C(=O)O` [N-Acetylcysteine], for which, in series [1] (setting [13]), the activity at 125 µM was determined as 107 ± 13%, the activity at 250 µM worked out at 92 ± 8% and the activity at 500 µM came to 81.5 ± 5.7%.
One may read the inhibition as how much of the control response was suppressed. In the case of `CC(=C(CCO)SSCC1CCCO1)N(C=O)Cc1cnc(C)nc1N` (stereo in doubt) [Fursultiamine, fursultiamine], the “anti-HIV activity (in words)” value in series [2] (50 μM), in [3] (50 μM) and in [5] (50 μM) was “marked anti-HIV activities” each time. The inhibition at 50 µM in series [2] (Human immunodeficiency virus 1, U-937, 96 h, read-out: Anti-HIV activities (inhibition %)) is 60%; in [3] (setting [14]) it was 96%; in series [4] (MOLT-4, 96 h) it was 0%; in [5] (setting [15]) it was 95%.
With `O=C(O)CCCCC1CCSS1` (stereo not drawn) [α-Lipoic acid], the activity at 62.5 µM in series [1] (COS-7, 62.5 μM, control = 100, read-out: Specific activity (%) (Average ± SE)) is 78.8 ± 7.4%. In series [1] (setting [13]), the activity at 125 µM came to 41.6 ± 9.9% and the activity at 250 µM came to 17.5 ± 2.1%.
On to `C=CCSSC(CCO)=C(C)N(C=O)Cc1cnc(C)nc1N` [Alitiamine, alitiamine], for which the inhibition at 50 µM in [2] (setting [16]) was 0%; in series [3] (setting [15]) it was 0%; in series [4] (MOLT-4, 50 μM, 96 hours), 0%. In series [5] (50 μM), the “anti-HIV activity (in words)” value is “marked anti-HIV activities”.
Regarding `CC(=C(CCOC(=O)C(C)C)SSC(CCOC(=O)C(C)C)=C(C)N(C=O)Cc1cnc(C)nc1N)N(C=O)Cc1cnc(C)nc1N` [Bisibutiamine, bisibutiamine], the inhibition at 50 µM in [2] (setting [16]) came out at 0%; in series [3] (setting [15]) it was 60%; in [4] (MOLT-4, 50 μM, 96 hours) it was 0%; in [5] (setting [14]), 0%. Besides, the “anti-HIV activity (in words)” value in series [3] (50 μM) is given as “marked anti-HIV activities”.
Turning to `CC(=C(CCO)SSC(CCO)=C(C)N(C=O)Cc1cnc(C)nc1N)N(C=O)Cc1cnc(C)nc1N` [Thiamine disulfide, thiamine disulfide], the inhibition at 125 µM in [2] (Human immunodeficiency virus 1, U-937, 125 μM, 96 hours, read-out: Anti-HIV activities (inhibition %)) came out at 0%; in [3] (setting [17]), 90%; in [4] (MOLT-4, 125 μM, 96 hours) it was 80%; in [5] (setting [17]), 51%. Moreover, the inhibition at 500 µM in series [2] (Human immunodeficiency virus 1, U-937, 500 μM, 96 hours, read-out: Anti-HIV activities (inhibition %)) was 80%; in series [3] (setting [18]), 99%; in [4] (MOLT-4, 500 μM, 96 hours), 97%; in series [5] (setting [18]), 90%. Further, the “anti-HIV activity (in words)” value in series [2] (concentration not given) and in [11] was “marked anti-HIV activities” throughout. Besides, in series [6], the “effect on growth and proliferation of CEM cells” value was “did not affect the growth and proliferation”. Besides, the “formation of p24 and p41 protein in culture supernatant” value in [7] is listed as “neither p24 protein nor p41 protein was formed”. For the same compound, the activity at 500 µM in series [8] is 0.3%; in [1] (setting [13]) it was 36.1 ± 6.3%. Besides, in series [9], the “effect on growth and proliferation of CEM/LAV cells” value is “clearly inhibited the growth and proliferation”. For the same compound, the “number of killed cells” value in [9] was “the number of killed cells did not increase”. Further, the “effect on growth of primarily infected CEM cells” value in series [10] is recorded as “did not affect the growth”. Moreover, in series [1] (setting [13]), the activity at 125 µM amounted to 92.3 ± 6.1%. Moreover, the activity at 250 µM in series [1] (setting [13]) was 64.4 ± 6.1%. Further, the “inhibition of the activity of Tat” value in series [1] (concentrations of 125-500 μM) was “inhibited the activity of Tat in dependence on dose”.
Take `N[C@@H](CCC(=O)N[C@@H](CS)C(=O)NCC(=O)O)C(=O)O` [Glutathione]: the activity at 250 µM in series [1] (setting [13]) amounted to 110 ± 17%.
With `Cc1cn([C@H]2C[C@H](N=[N+]=[N-])[C@@H](CO)O2)c(=O)[nH]c1=O` [AZT, azidothymidine], the side effects entry in series [12] was “headache, gastrointestinal disorders and a myelodepresant effect”.
